This passage reports inhibition results from ChEMBL document CHEMBL3132769, “Fragment growing to retain or alter the selectivity of anchored kinase hinge-binding fragments” (Medchemcomm, 2014).

The inhibition is the relative decrease from the control value, in per cent.

Experiment [1] has as its target MAP kinase p38 (Homo sapiens) (UniProt O15264+Q15759+Q16539+P53778). The conditions noted are these: 0.1 uM.
Description: Inhibition of human full length p38 beta2 expressed in Escherichia coli cell assessed as substrate phosphorylation using fluorescence-labelled peptides as substrate at 0.1 uM after 90 mins by microfluidic peptide phosphorylation assay
The target in experiment [2] is T1, Protein kinase C epsilon type (Homo sapiens) (UniProt Q02156).
T1 sequence (whole entry): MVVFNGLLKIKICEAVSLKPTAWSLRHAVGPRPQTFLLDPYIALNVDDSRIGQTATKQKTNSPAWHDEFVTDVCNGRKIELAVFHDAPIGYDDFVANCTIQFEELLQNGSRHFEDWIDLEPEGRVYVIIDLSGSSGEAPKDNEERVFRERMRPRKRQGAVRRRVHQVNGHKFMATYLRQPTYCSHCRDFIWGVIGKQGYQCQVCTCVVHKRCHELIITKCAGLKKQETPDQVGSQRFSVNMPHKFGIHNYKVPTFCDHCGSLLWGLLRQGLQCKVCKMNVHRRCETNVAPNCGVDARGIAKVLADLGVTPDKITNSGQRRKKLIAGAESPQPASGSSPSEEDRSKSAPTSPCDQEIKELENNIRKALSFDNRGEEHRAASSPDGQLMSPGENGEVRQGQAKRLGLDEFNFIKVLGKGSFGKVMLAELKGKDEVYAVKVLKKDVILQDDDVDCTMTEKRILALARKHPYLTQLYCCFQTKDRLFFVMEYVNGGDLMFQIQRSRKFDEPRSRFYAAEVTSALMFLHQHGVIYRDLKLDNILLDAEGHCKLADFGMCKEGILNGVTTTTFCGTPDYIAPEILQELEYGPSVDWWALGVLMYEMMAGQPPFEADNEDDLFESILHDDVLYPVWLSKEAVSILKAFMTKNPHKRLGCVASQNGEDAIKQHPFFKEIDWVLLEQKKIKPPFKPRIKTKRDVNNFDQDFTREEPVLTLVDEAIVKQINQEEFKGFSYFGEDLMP
The experiment can be described thus: Inhibition of human truncated PKC epsilon expressed in baculovirus assessed as substrate phosphorylation using fluorescence-labelled peptides as substrate at 0.2 uM after 90 mins by microfluidic peptide phosphorylation assay.

For experiment [3], the target named is T2, Testis-specific serine/threonine-protein kinase 2 (Homo sapiens) (UniProt Q96PF2).
T2 sequence (whole entry): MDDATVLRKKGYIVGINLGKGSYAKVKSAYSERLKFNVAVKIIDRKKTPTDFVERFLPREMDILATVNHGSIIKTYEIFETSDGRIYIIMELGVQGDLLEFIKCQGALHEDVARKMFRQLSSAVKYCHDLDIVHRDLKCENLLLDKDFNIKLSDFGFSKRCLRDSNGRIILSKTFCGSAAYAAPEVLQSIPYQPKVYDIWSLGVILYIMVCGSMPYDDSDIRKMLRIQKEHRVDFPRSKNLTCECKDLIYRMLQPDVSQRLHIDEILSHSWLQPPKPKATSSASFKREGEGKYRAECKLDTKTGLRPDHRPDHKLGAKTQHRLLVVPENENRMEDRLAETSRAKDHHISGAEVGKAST
The experiment can be described thus: Inhibition of human full length TSSK2 expressed in baculovirus assessed as substrate phosphorylation using fluorescence-labelled peptides as substrate at 0.06 uM after 90 mins by microfluidic peptide phosphorylation assay.

For experiment [4], the target named is Aurora kinase B (Homo sapiens) (UniProt Q96GD4). The experiment can be described thus: Inhibition of human full length AurB expressed in baculovirus assessed as substrate phosphorylation using fluorescence-labelled peptides as substrate at 8 uM after 90 mins by microfluidic peptide phosphorylation assay.
Aurora kinase B (Homo sapiens), sequence (Q96GD4 whole entry): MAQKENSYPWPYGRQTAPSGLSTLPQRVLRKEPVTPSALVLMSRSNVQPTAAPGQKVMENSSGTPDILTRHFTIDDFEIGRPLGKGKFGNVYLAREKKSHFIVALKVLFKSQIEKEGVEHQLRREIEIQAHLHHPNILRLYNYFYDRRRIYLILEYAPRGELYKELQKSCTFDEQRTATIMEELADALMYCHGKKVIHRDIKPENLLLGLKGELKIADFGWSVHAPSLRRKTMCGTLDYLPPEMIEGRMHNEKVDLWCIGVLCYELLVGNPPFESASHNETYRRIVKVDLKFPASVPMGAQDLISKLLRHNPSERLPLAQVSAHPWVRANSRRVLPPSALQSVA
The target of experiment [5] is T3, Serine/threonine-protein kinase Nek2 (Homo sapiens) (UniProt P51955).
T3 sequence (whole entry): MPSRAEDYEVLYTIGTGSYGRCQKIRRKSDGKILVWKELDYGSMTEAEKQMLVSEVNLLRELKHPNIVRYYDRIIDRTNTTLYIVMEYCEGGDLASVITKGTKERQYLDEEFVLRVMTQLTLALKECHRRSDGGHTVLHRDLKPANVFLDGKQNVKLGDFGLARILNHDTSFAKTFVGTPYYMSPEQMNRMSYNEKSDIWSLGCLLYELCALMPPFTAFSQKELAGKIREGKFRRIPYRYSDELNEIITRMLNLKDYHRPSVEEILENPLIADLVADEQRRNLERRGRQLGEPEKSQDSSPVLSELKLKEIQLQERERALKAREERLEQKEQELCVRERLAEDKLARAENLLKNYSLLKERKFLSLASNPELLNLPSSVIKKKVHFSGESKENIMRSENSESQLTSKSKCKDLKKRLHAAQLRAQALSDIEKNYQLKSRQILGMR
The experiment can be described thus: Inhibition of human full length NEK2 expressed in baculovirus assessed as substrate phosphorylation using fluorescence-labelled peptides as substrate at 8 uM after 90 mins by microfluidic peptide phosphorylation assay.

The target of experiment [6] is Mitogen-activated protein kinase 14 (Homo sapiens) (UniProt Q16539). As to the kind of experiment: Inhibition of human truncated p38 alpha expressed in Escherichia coli cell assessed as substrate phosphorylation using fluorescence-labelled peptides as substrate at 420 uM after 90 mins by microfluidic peptide phosphorylation assay.
Mitogen-activated protein kinase 14 (Homo sapiens), sequence (Q16539 whole entry, the tested form may be a part): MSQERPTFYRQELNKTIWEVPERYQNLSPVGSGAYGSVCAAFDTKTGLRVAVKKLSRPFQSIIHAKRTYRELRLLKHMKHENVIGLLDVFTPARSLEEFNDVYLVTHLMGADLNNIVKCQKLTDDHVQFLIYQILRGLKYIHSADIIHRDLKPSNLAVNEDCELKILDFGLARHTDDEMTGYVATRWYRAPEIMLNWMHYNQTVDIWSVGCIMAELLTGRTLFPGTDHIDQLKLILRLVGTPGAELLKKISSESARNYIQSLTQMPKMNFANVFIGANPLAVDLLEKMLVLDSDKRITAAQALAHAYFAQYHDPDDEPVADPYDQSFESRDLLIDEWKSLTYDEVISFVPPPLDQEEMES
Experiment [7] addresses T4, Protein kinase C zeta type (Homo sapiens) (UniProt Q05513).
T4 sequence (whole entry): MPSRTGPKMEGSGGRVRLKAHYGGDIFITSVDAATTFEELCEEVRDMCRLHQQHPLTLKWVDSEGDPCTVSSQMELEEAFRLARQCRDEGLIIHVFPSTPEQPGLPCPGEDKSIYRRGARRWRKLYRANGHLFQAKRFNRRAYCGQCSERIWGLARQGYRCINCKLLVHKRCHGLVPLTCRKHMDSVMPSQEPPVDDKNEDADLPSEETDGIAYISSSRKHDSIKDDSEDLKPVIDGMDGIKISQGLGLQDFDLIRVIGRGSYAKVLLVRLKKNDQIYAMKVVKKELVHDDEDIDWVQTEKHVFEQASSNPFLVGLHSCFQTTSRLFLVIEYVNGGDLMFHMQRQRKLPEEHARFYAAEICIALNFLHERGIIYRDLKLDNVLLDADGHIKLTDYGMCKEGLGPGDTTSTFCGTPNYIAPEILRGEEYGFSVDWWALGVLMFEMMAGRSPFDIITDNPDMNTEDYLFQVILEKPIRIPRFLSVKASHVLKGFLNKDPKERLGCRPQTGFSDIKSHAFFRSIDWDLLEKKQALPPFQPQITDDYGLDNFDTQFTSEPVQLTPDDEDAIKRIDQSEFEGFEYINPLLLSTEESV
As to the kind of experiment: Inhibition of human full length PKC zeta expressed in baculovirus assessed as substrate phosphorylation using fluorescence-labelled peptides as substrate at 420 uM after 90 mins by microfluidic peptide phosphorylation assay.

Experiment [8] addresses Mitogen-activated protein kinase 14 (Homo sapiens) (UniProt Q16539). As to the kind of experiment: Inhibition of human truncated p38 alpha expressed in Escherichia coli cell assessed as substrate phosphorylation using fluorescence-labelled peptides as substrate at 1000 uM after 90 mins by microfluidic peptide phosphorylation assay.

In experiment [1], `C[C@H](CN(C)C)Oc1nc(Nc2cc3cccc(Cl)c3cn2)cnc1C#N` displayed an inhibition of 0%.

On to `Clc1ccc(C2(c3ccc(-c4ncnc5[nH]cnc45)cc3)CCNCC2)cc1`, for which the inhibition in experiment [2] was 46.5%.

In the case of `NC1(Cc2ccc(Cl)cc2)CCN(c2ncnc3[nH]ccc23)CC1`, in experiment [3], the inhibition came out at 3%.

Consider `NCC1CCN(c2ncnc3[nH]ccc23)CC1`, for which the inhibition in experiment [4] was 76%; in experiment [5], 0%.

On to `c1nc(N2CCOCC2)c2nc[nH]c2n1`, for which the values for the inhibition in experiment [6] and in experiment [7] were 0% and 46%, respectively.

Turning to `c1cnc2[nH]ccc2c1`, the inhibition in experiment [8] worked out at 0%.
